Results from ChEMBL document CHEMBL1201862, “PubChem BioAssay data set” (2004).
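Growth conditions: 96-well plates. Treatment: test compound, 48 hours, 5 concentrations. Analysis: linear interpolation between bracketing concentrations; unreached endpoints set to highest concentration. At the GI50, growth is halved.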 Activity calls are given as the source filed them. Cut-off read from the data, not from the text of the source: active = GI50 up to about 1.1 µM and inactive = higher.

How the values were obtained:
Test in all cases: DTP human tumour cell line panel, 48 h
[1] = test system: DMS-114
[2] = test system: LXFL 529
[3] = test system: HOP-18
[4] = test system: RXF 631
[5] = test system: KM-20L2
[6] = test system: DMS-273
[7] = test system: SNB-78
[8] = test system: XF498

Measured: GI50

COC(=O)C(=O)OC1(C(C)=O)CC2(c3ccccc3)OC1(c1ccccc1)c1ccccc12 (stereo unspecified)
inactive: [1] 15.1 µM | [2] 19.8 µM | [3] 52.8 µM | [4] 23.1 µM | [5] 15.6 µM | [6] 15.2 µM | [7] 27.8 µM | [8] 16.4 µM

COC(=O)C(C(=O)C(=O)NC1=C(Cl)C(=O)c2ccccc2C1=O)c1csc(-n2nc(-c3ccccc3)cc2-c2ccccc2)n1 (stereo unspecified)
inactive: [1] 10.2 µM | [2] > 100 µM | [3] 13.1 µM | [4] > 100 µM | [5] > 100 µM | [6] > 100 µM | [7] > 100 µM | [8] > 100 µM
